# Test results: patent US7256204B2, “Amine compounds, their production and use” (Takeda Pharmaceutical Company Limited, priority 1997, dated 2007)
# Where a name gives a salt, the structure may show the parent alone.
# Tested on: not given
# Test: not given
# Conditions: not given
row,SMILES,melting point
1,CC(=O)N(Cc1ccc(-c2ccccc2)cc1)c1ccc2c(c1)CCC(CN(C)C)C2.Cl (stereo not shown),179 to 182 °C
2,CN(C)CC1CCc2cc(OCc3ccc(-c4ccccc4C#N)cc3)ccc2C1.Cl (stereo not shown),202 to 203 °C
3,COc1ccc(-c2ccccc2COc2ccc3c(c2)CCC(CN(C)C)C3)cc1.Cl (stereo not shown),170 to 171 °C
4,CN(C)CC1CCc2cc(OCc3ccc(-c4ccc(C=O)cc4)cc3)ccc2C1.Cl (stereo not shown),234 to 235 °C
5,CN(C)CC1CCc2ccc(OCc3ccc(-c4ccccc4)cc3)cc2C1.Cl (stereo not shown),232 to 233 °C
6,CN(C)CC1CCc2cc(OCc3ccccc3-c3ccc(F)cc3)ccc2C1.Cl (stereo not shown),172 to 174 °C
7,COc1ccc(-c2cccc(COc3ccc4c(c3)CCC(CN(C)C)C4)c2)cc1.Cl (stereo not shown),182 to 183 °C
8,CN(C)CC1CCc2cc(OCc3ccc(-c4ccsc4)cc3)ccc2C1.Cl (stereo not shown),222 to 223 °C
9,CSc1ccc(-c2ccc(COc3ccc4c(c3)CCC(CN(C)C)C4)cc2)cc1.Cl (stereo not shown),235 to 237 °C
10,CN(C)CC1CCc2cc(OCc3ccc(-c4cccs4)cc3)ccc2C1.Cl (stereo not shown),227 to 228 °C
11,CN(C)CC1CCc2cc(OCc3ccc4ccccc4c3)ccc2C1.Cl (stereo not shown),228 to 229 °C
12,CCCN(CCC)CC1CCc2cc(OCc3ccc(-c4ccccc4)cc3)ccc2C1.Cl (stereo not shown),164 to 166 °C
13,CN(C)CC1CCc2cc(OCc3cccc(-c4ccccc4)c3)ccc2C1.Cl (stereo not shown),186 to 190 °C
14,c1ccc(-c2ccc(COc3ccc4c(c3)CCC(CCN3CCC(N5CCCCC5)CC3)C4)cc2)cc1 (stereo not shown) (as salt: hydrochloride),288 to 291 °C
15,COc1ccc(-c2ccc(COc3ccc4c(c3)CCC(CCN(C)C)C4)cc2)cc1.Cl (stereo not shown) [44],182 to 185 °C
16,CN(C)CC1CCc2cc(OCc3ccc(-c4ccc(F)cc4)cc3)ccc2C1.Cl (stereo not shown),223 to 234 °C

row,SMILES,melting point
1,COc1cccc(-c2ccc(COc3ccc4c(c3)CCC(CN(C)C)C4)cc2)c1.Cl (stereo not shown),207 to 208 °C
2,CN(C)CC1CCc2cc(OCc3ccccc3-c3ccccc3)ccc2C1.Cl (stereo not shown),173 to 174 °C
3,CN(C)CC1CCc2cc(OCc3ccc(-c4cc(C(F)(F)F)cc(C(F)(F)F)c4)cc3)ccc2C1.Cl (stereo not shown),196 to 197 °C
4,CN(C)CC1CCc2ccc(OCc3ccc4ccccc4c3)cc2C1.Cl (stereo not shown),201 to 202 °C
5,Cc1ccc(-c2ccc(COc3ccc4c(c3)CCC(CN(C)C)C4)cc2)cc1.Cl (stereo not shown),226 to 228 °C
6,CNCC1CCc2cc(OCc3ccc(-c4ccccc4)cc3)ccc2C1.Cl (stereo not shown),189 to 190 °C
7,CN(C)CC1CCc2cc(OCc3ccc(-c4cccc([N+](=O)[O-])c4)cc3)ccc2C1.Cl (stereo not shown),223 to 234 °C
8,CN(C)CC1CCc2cc(OCc3cccc(-c4ccc(F)cc4)c3)ccc2C1.Cl (stereo not shown),171 to 172 °C
9,CN(C)CCCCC1CCc2cc(OCc3ccc(-c4ccccc4)cc3)ccc2C1.Cl (stereo not shown),175 to 177 °C
10,Cl.OC1(O)CCN(CCC2CCc3cc(OCc4ccc(-c5ccccc5)cc4)ccc3C2)CC1 (stereo not shown),155 to 156 °C
11,Cl.c1ccc(C2CCN(CCC3CCc4cc(OCc5ccc6ccccc6c5)ccc4C3)CC2)cc1 (stereo not shown),229 to 234 °C (dec.)
12,CN(C)CC1CCc2cc(OCc3ccc(-c4cccnc4)cc3)ccc2C1 (stereo not shown) (as salt: hydrochloride),212 to 213 °C
13,COc1ccccc1-c1ccc(COc2ccc3c(c2)CCC(CN(C)C)C3)cc1.Cl (stereo not shown),140 to 141 °C
14,Cl.c1ccc(-c2ccc(COc3ccc4c(c3)CCC(CCN3CCCC3)C4)cc2)cc1 (stereo not shown),197 to 199 °C
15,Cl.c1ccc2cc(COc3ccc4c(c3)CCC(CN3CCCCC3)C4)ccc2c1 (stereo not shown),215 to 218 °C (dec.)

# Tested on: mouse
# Test: Experiment of acute toxicity, oral administration
# Assay type: in vivo
# Conditions: dose of more than 1000 mg/kg
# Source text: In addition, compounds (I) and (I′) have low toxicity. […] Moreover, compounds (I) and (I′) easily penetrate into the brain following the oral administration.
row,SMILES,acute toxicity (death)
1,"CN(C)CCC1CCc2cc(OCc3ccc(-c4ccccc4)cc3)ccc2C1.Cl (stereo not shown) [Example 12, 6-(4-Biphenylyl)methoxy-2-[2-(N,N-dimethylamino)ethyl]tetralin hydrochloride]",no mouse was dead

# Tested on: Aβ1-42 production and/or secretion in human neuroblastoma IMR-32 cells
# Test: Inhibition of amyloid-β protein production in IMR-32 cells, EIA for Aβ1-42
# Assay type: cell-based
# Conditions: test compound 10 μM, 24 hours incubation, effect to inhibit production and/or secretion as percentage relative to the control
# Experimental: (§1) Compounds of the present invention were tested for effect of inhibiting amyloid-β protein production in human neuroblastoma IMR-32 cells. Herein referred to were references, Science, 264, 1336 (1994) and Biochemistry, 34, 10272 (1995), etc.
# (§2) IMR-32 cells were cultivated in a flask (Falcon, 750 ml) containing 10% FCS/DMEM medium, in an atmosphere of 10% CO2/90% air, at 37° C. to be in confluence. The cultivated cells were seeded into a 48-well plate in a density of 2.5×10^5 cells/well, and incubated therein for 3 days under the same condition as above. Then, the culture medium was removed through suction.
# (§3) A dimethylformamide (DMF) solution containing a test compound was dissolved in 0.5 ml of 0.5% BSA/DMEM, and added to the plate, and the cells were incubated for further 24 hours. As the control, the same volume of DMF but not containing the test compound was dissolved in 0.5 ml of 0.5% BSA/DMEM, and added to the plate. […]
# (§4) The plate was washed three times with PBS, and 100 μl of an HRP-labeled secondary antibody (BA-27 antibody or BC-05 antibody labeled with HRP, horseradish peroxidase) as dissolved in a buffer for secondary reaction (20 mM phosphate buffer, pH 7.0; 400 mM NaCl; 2 mM EDTA; 1% BSA) was added thereto. […] Then, using a plate reader (MTP-32 Microplate Reader, by Corona Co.), the sample on the plate was subjected to calorimetric determination (at 450 nm). […]
row,SMILES,Aβ1–42 (%)
1,"CN(C)CCC1CCc2cc(OCc3ccc(-c4ccccc4)cc3)ccc2C1.Cl (stereo not shown) [Example 12, 6-(4-Biphenylyl)methoxy-2-[2-(N,N-dimethylamino)ethyl]tetralin hydrochloride]",75

# Tested on: Aβ1-40 production and/or secretion in human neuroblastoma IMR-32 cells
# Test: Inhibition of amyloid-β protein production in IMR-32 cells, EIA for Aβ1-40
# Assay type: cell-based
# Conditions: test compound 10 μM, 24 hours incubation, effect to inhibit production and/or secretion as percentage relative to the control
# Experimental: as §1, §2, §3, §4
row,SMILES,Aβ1–40 (%)
1,"CN(C)CCC1CCc2cc(OCc3ccc(-c4ccccc4)cc3)ccc2C1.Cl (stereo not shown) [Example 12, 6-(4-Biphenylyl)methoxy-2-[2-(N,N-dimethylamino)ethyl]tetralin hydrochloride]",74
